Test results taken from patent US20240057598A1, “USE OF 2-AMINO-3-METHYLHEXANOIC ACID AS PLANT IMMUNITY INDUCER” (NANJING AGRICULTURAL UNIVERSITY, priority 2020, published 2024).

How the values were obtained:
[1] = system: tomato spotted wilt virus; assay: Induced resistance of tobacco to tomato spotted wilt virus infection; type: in vivo; conditions: for Relative immune effect / Disease index: tobacco; for Content of virus protein: tobacco leaves, 3 days, Western blot, relative
Method: Tomato spotted wilt virus was obtained from Yunnan Province, China. The initial virus source was stored in a refrigerator at −80° C. Nicotiana benthamiana leaves were inoculated with the virus by mechanical inoculation to activate the virus. Viral plasmids were extracted and transformed by competent cells of Escherichia coli. The competent cells were spread on a resistant plate and cultured. Single colonies were selected for PCR screening. Positive colonies were selected for sequencing and subsequent plasmid extraction. Plasmids with normal sequencing were added to competent cells of Agrobacterium, and the Agrobacterium was transformed by electroporation. A solution of the transformed Agrobacterium was spread on the correspondingly resistant screening plate, and cultured at 28° C. (±1) for 48 h. Single colonies of the Agrobacterium on the transformation plate were selected, placed in 5 mL of correspondingly resistant LB medium, and cultured overnight at 28° C. and 180 rpm. Bacterial cells were collected by 2 min of centrifugation at 6,000 rpm, and suspended with an Agrobacterium treatment buffer solution (10 mM MgCl2, 10 mM MES, 10 μM Acetosyringone) until the OD600 value of the suspension was 0.5, and the suspension was treated at 28° C. for 3 h in dark for use.
2-amino-3-methylhexanoic acid was dissolved in distilled water and then diluted with distilled water by gradient into solutions of 0 nM, 0.5 nM, 1 nM and 10 nM. Nicotiana benthamiana seeds were sowed in a small pot, and cultured at 22 (±1)° C., 16 h/8 h light for 5 weeks. Healthy tobacco plants (preferably with 8-10 leaves) were selected and treated with the 2-amino-3-methylhexanoic acid solutions of the above concentrations to conduct spray treatment on the stems and leaves. The treatment was repeated once after 24 h and conducted twice in total. After 24 h, the Agrobacterium solution with a uniform concentration was extracted using a 1 mL syringe, the injection port of the syringe was pressed directly on a small hole on the back of a tobacco leaf, and the bacterial solution was slowly pushed to soak the whole leaf. The soaked tobacco was moved to an environment of 22 (±1)° C. and cultured under 16 h/8 h light. 3 days later, microscopic observation was conducted. At the same time, samples were taken. The gray scale of protein bands was analyzed by Western blot combined with ImageJ software, and the relative protein content of the virus in the leaves was determined. The incidence of tobacco leaves was observed 15 days later, and the disease indexes were recorded according to the Grade and Investigation Method of Tobacco Diseases and Insect Pests (GB/T23222-2008) using a formula as follows: […]
Grading standard of tomato spotted wilt virus infection (grading and investigation were conducted per plant): • Grade 0: The whole plant is disease free. • Grade 1: Heart leaves have clear veins or are slightly mottled, and the diseased plant is not obviously dwarfed. • Grade 3: One-third of leaves are mottled without deformation, or the diseased plant is dwarfed to three quarters or more of a normal plant in height. • Grade 5: One-third to one-half of leaves are mottled, or a few leaves are deformed, or the main veins become black, or the plant is dwarfed to two-thirds to three-quarters of a normal plant in height. • Grade 7: One-half to two-thirds of leaves are mottled or deformed, or a few main and lateral veins become necrotic, or the plant is dwarfed to one-half to two-thirds of a normal plant in height. • Grade 9: The leaves of the whole plant are mottled, seriously deformed or necrotic, or the diseased plant is dwarfed to […] of a normal plant in height.

[2] = system: tea "Baiye 1" cutting seedlings; assay: Effect on amino acid content of tea leaves at normal temperature; type: in vivo; set-up: Amino acid content of tea leaves: unit not given here; conditions: 10 nM, room temperature
Method: At normal temperature, the effect of 2-amino-3-methylhexanoic acid on tea quality was determined using “Baiye 1” cutting seedlings as the tea trees tested. Tea seedlings with relatively consistent growth were transplanted into a plastic pot with a diameter of 18 cm and placed in a greenhouse at a temperature of 25° C. and a humidity of 60%-70% for adaptive growth for about a week. Two concentrations of 0 and 10 nM were set in the experiment, and 0.02% Tween 20 was added as a surfactant. 1 week after transplanting, the stems and leaves of the tea seedlings were sprayed once every 24 h, twice in total. After spray, the tea leaves were placed in a greenhouse at 25° C., and samples were taken on the 1st, 3rd, 5th and 7th days to determine the total amino acid content of one leaf and one bud at the top of tea leaves.

[3] = each concentration in range 0.5-10 nM

CCCC(C)C(N)C(=O)O (stereo not drawn) [2-amino-3-methylhexanoic acid]
Relative immune effect ([1]; 0.5 nM): 59.06% | Relative immune effect ([1]; 1 nM): 52.36% | Content of virus protein ([1]; 1 nM): 0.33 ± 0.001c | Disease index ([1]; 1 nM, 15 days after inoculation): 44.81 ± 3.90c | Relative immune effect ([1]; 10 nM): 22.05% | Content of virus protein ([1]; 10 nM): 0.44 ± 0.007b | Disease index ([1]; 10 nM, 15 days after inoculation): 73.33 ± 2.22b | Disease index [1, 3]: lower than 75 | Relative immune effect [1, 3]: ≥ 20% | Increase of amino acid content compared with control ([2]; 3rd day): 14% | Increase of amino acid content compared with control ([2]; 5th day): 26% | Amino acid content of tea leaves ([2]; day 1): 2.13 | Amino acid content of tea leaves ([2]; day 3): 2.44 | Amino acid content of tea leaves ([2]; day 5): 2.69 | Amino acid content of tea leaves ([2]; day 7): 2.08
